Test results reported in patent US11572369B2, “Bicyclic pyridine compositions and methods of using the same for cancer therapy” (UNIVERSITY OF SOUTH CAROLINA, priority 2019, dated 2023).

Tests used:
Assay in all cases: KINOMEscan
Format in all cases: binding
Details in all cases: 2000 nM
ALK(C1156Y) = target: T1, ALK(C1156Y) (Homo sapiens, UniProt Q9UM73, C1156Y)
T1 construct: DNA label (qPCR read-out); purchased KINOMEscan scanMAX panel (DiscoveRx)

PIK3C2B = target: T2, PIK3C2B (Homo sapiens, UniProt O00750)
T2 construct: DNA label (for qPCR read-out); purchased DiscoveRx (KINOMEscan scanMAX service)

YSK4 = YSK4 (Homo sapiens, UniProt Q56UN5)
NEK9 = target: T3, NEK9 (Homo sapiens, UniProt Q8TD19)
T3 construct: DNA label (qPCR read-out); purchased KINOMEscan (ScanMAX panel service)

FLT3-autoinhibited = target: T4, FLT3-autoinhibited (Homo sapiens, UniProt P36888)
T4 construct: purchased KINOMEscan (DiscoveRx)

PKAC-alpha = target: T5, PKAC-alpha (Homo sapiens, UniProt P17612)
T5 construct: DNA label (qPCR read-out); purchased KINOMEscan (DiscoveRx) panel

MLCK = target: T6, MLCK (Homo sapiens, UniProt Q32MK0)
T6 construct: DNA label (qPCR read-out); purchased KINOMEscan scanMAX panel (DiscoveRx)

[1] = target: T7, RPS6KA4(Kin.Dom.2-C-terminal) (Homo sapiens, UniProt O75676)
T7 construct: Kin.Dom.2; DNA label (qPCR read-out); purchased DiscoveRx (KINOMEscan ScanMAX panel)

EPHA5 = target: T8, EPHA5 (Homo sapiens, UniProt P54756)
T8 construct: purchased DiscoveRx (KINOMEscan scanMAX panel)

BMPR2 = target: T9, BMPR2 (Homo sapiens, UniProt Q13873)
T9 construct: DNA label (for qPCR read-out); purchased KINOMEscan scanMAX panel (DiscoveRx)

PIP5K2B = target: T10, PIP5K2B (Homo sapiens, UniProt P78356)
T10 construct: DNA label (qPCR read-out); purchased KINOMEscan (DiscoveRx) panel

CHEK2 = target: T11, CHEK2 (Homo sapiens, UniProt O96017)
T11 construct: DNA label (for qPCR read-out); purchased DiscoveRx (KINOMEscan scanMAX service)

RIOK2 = target: T12, RIOK2 (Homo sapiens, UniProt Q9BVS4)
T12 construct: DNA label (qPCR read-out); purchased DiscoverX (assay service)

SYK = target: T13, SYK (Homo sapiens, UniProt P43405)
T13 construct: DNA label (for qPCR read-out); purchased DiscoveRx (KINOMEscan scanMAX panel, contract assay)

PFTAIRE2 = target: T14, PFTAIRE2 (Homo sapiens, UniProt Q96Q40)
T14 construct: DNA label (for qPCR read-out); purchased DiscoveRx (KINOMEscan scanMAX service)

FLT1 = target: T15, FLT1 (Homo sapiens, UniProt P17948)
T15 construct: purchased DiscoveRx (KINOMEscan scanMAX panel)

CDK3 = target: T16, CDK3 (Homo sapiens, UniProt Q00526)
T16 construct: purchased DiscoverX (KINOMEscan service)

ABL2 = target: T17, ABL2 (Homo sapiens, UniProt P42684)
T17 construct: purchased DiscoveRx (KINOMEscan scanMAX panel, service)

TBK1 = target: T18, TBK1 (Homo sapiens, UniProt Q9UHD2)
T18 construct: DNA label (for qPCR read-out); purchased DiscoveRx (KINOMEscan scanMAX panel, contract assay)

TIE1 = target: T19, TIE1 (Homo sapiens, UniProt P35590)
T19 construct: DNA label (qPCR read-out); purchased KINOMEscan (DiscoveRx) ScanMAX panel

ULK1 = target: T20, ULK1 (Homo sapiens, UniProt O75385)
T20 construct: DNA label (for qPCR read-out); purchased DiscoveRx (KINOMEscan scanMAX panel)

OSR1 = target: T21, OSR1 (Homo sapiens, UniProt O95747)
T21 construct: purchased DiscoverX (KINOMEscan service)

GRK4 = target: T22, GRK4 (Homo sapiens, UniProt P32298)
T22 construct: DNA label (for qPCR read-out); purchased DiscoveRx (KINOMEscan scanMAX panel, contract assay)

PAK2 = target: T23, PAK2 (Homo sapiens, UniProt Q13177)
T23 construct: purchased DiscoverX (KINOMEscan service)

NEK11 = target: T24, NEK11 (Homo sapiens, UniProt Q8NG66)
T24 construct: DNA label (qPCR read-out); purchased KINOMEscan (ScanMAX panel service)

PLK3 = target: T25, PLK3 (Homo sapiens, UniProt Q9H4B4)
T25 construct: purchased DiscoveRx (KINOMEscan scanMAX panel)

AURKA = target: T26, AURKA (Homo sapiens, UniProt O14965)
T26 construct: DNA label (qPCR read-out); purchased KINOMEscan scanMAX panel (DiscoveRx)

CAMKK1 = target: T27, CAMKK1 (Homo sapiens, UniProt Q8N5S9)
T27 construct: DNA label (qPCR read-out); purchased KINOMEscan (ScanMAX panel service)

IKK-alpha = target: T28, IKK-alpha (Homo sapiens, UniProt O15111)
T28 construct: DNA label (qPCR read-out); purchased KINOMEscan (DiscoveRx) ScanMAX panel

ZAK = ZAK (Homo sapiens, UniProt Q9NYL2)
MAP3K2 = MAP3K2 (Homo sapiens, UniProt Q9Y2U5)
DLK = target: T29, DLK (Homo sapiens, UniProt Q12852)
T29 construct: DNA label (qPCR read-out); purchased KINOMEscan (DiscoveRx) panel

MST4 = target: T30, MST4 (Homo sapiens, UniProt Q9P289)
T30 construct: DNA label (for qPCR read-out); purchased KINOMEscan scanMAX panel (DiscoveRx)

MEK1 = target: T31, MEK1 (Homo sapiens, UniProt Q02750)
T31 construct: purchased DiscoveRx (KINOMEscan scanMAX panel, service)

HCK = target: T32, HCK (Homo sapiens, UniProt P08631)
T32 construct: DNA label (for qPCR read-out); purchased DiscoveRx (KINOMEscan scanMAX panel, contract assay)

MAST1 = target: T33, MAST1 (Homo sapiens, UniProt Q9Y2H9)
T33 construct: purchased DiscoveRx (KINOMEscan scanMAX panel, service)

T15 sequence (P17948 27-1338): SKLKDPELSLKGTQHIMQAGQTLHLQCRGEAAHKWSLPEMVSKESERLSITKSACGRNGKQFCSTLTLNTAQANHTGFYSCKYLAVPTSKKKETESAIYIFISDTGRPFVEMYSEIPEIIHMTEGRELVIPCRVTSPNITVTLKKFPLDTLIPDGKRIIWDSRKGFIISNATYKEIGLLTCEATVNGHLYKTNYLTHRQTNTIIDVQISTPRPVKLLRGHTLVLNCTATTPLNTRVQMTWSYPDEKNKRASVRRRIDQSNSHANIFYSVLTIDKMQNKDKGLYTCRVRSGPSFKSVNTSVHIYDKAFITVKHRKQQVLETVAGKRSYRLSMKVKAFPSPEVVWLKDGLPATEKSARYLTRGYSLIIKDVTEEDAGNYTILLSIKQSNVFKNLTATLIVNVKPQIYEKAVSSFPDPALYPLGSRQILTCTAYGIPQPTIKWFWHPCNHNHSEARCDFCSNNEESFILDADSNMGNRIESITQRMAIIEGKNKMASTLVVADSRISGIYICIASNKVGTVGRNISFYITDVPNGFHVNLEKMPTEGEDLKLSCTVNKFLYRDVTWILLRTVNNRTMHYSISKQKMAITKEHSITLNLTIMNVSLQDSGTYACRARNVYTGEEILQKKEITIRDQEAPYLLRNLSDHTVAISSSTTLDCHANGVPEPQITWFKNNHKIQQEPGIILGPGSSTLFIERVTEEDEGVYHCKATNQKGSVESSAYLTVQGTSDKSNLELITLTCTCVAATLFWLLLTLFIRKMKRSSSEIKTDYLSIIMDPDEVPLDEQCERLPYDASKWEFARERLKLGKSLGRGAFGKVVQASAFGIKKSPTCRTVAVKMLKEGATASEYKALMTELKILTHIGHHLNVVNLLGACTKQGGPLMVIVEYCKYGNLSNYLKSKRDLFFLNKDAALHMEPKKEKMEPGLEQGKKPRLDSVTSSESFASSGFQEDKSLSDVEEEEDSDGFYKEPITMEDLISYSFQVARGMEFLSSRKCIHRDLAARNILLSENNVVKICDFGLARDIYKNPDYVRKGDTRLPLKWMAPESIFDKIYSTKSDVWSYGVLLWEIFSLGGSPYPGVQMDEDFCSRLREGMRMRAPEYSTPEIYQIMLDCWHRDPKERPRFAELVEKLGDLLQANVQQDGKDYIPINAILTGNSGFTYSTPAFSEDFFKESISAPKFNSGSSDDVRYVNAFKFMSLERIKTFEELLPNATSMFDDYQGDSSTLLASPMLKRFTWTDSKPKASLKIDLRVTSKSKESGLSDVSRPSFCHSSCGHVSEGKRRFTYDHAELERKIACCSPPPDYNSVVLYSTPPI
T1 sequence (Q9UM73 19-1620 C1156Y): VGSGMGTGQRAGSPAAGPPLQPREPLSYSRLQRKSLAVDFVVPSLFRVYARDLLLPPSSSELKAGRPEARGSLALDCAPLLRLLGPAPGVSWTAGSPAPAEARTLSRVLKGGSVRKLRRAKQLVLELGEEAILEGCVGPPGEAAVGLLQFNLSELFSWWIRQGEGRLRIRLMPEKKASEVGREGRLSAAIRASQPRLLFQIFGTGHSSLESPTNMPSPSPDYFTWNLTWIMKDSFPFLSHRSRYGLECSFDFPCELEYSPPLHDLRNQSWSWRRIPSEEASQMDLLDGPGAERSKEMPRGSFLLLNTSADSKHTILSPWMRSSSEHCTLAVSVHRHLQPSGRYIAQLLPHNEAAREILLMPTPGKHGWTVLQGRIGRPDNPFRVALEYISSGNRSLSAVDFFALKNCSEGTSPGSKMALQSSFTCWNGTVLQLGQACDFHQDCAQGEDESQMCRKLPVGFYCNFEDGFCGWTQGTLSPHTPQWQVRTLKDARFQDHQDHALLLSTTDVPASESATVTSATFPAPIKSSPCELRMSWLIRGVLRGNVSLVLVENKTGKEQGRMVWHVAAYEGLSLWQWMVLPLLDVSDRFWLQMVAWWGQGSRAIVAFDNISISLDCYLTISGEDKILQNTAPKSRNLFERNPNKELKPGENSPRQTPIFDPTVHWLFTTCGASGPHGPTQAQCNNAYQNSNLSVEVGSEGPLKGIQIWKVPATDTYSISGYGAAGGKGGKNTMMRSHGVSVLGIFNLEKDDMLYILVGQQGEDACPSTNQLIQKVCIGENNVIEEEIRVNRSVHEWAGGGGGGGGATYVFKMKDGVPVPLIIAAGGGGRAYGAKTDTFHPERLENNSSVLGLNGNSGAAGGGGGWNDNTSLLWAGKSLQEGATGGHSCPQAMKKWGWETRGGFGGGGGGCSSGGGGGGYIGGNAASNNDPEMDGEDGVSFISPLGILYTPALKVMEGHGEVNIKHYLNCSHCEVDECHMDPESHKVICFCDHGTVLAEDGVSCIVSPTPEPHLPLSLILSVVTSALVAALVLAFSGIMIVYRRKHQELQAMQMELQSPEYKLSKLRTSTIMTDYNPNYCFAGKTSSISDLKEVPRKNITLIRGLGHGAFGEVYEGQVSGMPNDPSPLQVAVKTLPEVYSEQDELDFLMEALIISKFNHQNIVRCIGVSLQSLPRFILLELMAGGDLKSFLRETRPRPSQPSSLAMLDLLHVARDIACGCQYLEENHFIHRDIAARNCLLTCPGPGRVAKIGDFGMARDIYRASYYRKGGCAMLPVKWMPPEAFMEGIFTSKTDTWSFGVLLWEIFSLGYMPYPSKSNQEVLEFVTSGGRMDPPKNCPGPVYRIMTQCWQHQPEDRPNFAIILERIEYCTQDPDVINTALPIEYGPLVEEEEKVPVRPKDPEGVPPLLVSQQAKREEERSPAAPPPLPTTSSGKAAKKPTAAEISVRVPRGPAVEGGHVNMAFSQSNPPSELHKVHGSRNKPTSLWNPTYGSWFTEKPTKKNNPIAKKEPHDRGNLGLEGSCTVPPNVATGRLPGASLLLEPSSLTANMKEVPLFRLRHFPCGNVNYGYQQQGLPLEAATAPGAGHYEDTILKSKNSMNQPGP
T7 sequence (O75676 411-674 limits assumed): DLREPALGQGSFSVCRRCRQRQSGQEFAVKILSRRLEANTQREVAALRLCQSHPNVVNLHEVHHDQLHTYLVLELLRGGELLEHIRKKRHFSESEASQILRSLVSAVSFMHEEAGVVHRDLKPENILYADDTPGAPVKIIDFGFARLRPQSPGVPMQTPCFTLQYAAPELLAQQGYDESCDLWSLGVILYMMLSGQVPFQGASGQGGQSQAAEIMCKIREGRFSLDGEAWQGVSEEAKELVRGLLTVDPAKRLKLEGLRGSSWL
T28 sequence (O15111 whole entry): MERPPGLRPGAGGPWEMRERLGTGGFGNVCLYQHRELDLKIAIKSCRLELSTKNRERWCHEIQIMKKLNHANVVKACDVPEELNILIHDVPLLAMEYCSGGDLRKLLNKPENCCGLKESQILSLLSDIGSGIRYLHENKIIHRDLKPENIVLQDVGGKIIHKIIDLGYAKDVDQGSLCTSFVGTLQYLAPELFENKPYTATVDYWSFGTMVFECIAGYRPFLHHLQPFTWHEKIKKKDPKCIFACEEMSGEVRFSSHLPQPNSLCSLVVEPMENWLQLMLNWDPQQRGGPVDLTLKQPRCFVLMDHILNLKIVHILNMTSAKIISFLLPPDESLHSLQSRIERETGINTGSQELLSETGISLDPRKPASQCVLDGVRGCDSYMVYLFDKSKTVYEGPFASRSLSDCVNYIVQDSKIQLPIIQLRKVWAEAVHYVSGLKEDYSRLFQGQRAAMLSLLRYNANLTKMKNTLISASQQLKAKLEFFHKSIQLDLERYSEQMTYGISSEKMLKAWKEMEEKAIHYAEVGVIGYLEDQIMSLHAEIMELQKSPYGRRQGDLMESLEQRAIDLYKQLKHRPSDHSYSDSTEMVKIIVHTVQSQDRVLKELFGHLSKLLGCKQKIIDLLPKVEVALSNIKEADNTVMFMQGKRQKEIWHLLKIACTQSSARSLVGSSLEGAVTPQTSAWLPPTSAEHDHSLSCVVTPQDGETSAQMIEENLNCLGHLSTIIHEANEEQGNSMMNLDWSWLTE
T6 sequence (Q32MK0 whole entry): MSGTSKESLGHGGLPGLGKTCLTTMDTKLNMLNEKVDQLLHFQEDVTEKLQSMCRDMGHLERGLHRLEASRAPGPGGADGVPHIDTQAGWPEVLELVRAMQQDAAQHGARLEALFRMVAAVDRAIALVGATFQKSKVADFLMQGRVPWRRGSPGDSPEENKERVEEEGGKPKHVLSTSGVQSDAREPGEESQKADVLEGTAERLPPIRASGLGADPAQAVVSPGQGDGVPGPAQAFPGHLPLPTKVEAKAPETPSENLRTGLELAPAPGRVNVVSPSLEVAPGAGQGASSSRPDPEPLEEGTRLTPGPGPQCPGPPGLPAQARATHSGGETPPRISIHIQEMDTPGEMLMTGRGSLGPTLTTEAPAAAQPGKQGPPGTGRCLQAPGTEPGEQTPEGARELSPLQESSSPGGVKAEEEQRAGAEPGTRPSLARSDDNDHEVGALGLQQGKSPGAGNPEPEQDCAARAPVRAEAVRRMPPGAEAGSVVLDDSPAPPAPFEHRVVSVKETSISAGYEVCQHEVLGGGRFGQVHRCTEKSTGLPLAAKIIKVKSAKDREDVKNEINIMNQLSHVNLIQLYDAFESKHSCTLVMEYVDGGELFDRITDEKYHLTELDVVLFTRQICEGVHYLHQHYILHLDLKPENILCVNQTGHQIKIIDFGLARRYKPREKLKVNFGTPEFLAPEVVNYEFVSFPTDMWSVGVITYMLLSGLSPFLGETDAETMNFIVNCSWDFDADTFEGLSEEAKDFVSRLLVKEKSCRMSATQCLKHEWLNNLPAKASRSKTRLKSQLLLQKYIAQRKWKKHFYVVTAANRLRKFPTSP
T16 sequence (Q00526 whole entry): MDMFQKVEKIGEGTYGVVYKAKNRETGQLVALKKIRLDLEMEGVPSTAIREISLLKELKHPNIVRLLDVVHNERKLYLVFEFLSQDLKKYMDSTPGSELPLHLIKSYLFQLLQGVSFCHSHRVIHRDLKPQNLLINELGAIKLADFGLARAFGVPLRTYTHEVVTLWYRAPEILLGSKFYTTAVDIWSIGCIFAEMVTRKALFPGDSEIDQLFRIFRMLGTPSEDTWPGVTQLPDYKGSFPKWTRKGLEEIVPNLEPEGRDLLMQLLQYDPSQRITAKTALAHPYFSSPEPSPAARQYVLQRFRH

Structure (SMILES) | % Ctrl (ALK(C1156Y)) [% Ctrl] | % Ctrl (PIK3C2B) [% Ctrl] | % Ctrl (YSK4) [% Ctrl] | % Ctrl (NEK9) [% Ctrl] | % Ctrl (FLT3-autoinhibited) [% Ctrl] | % Ctrl (PKAC-alpha) [% Ctrl] | % Ctrl (MLCK) [% Ctrl] | % Ctrl [1] [% Ctrl] | % Ctrl (EPHA5) [% Ctrl] | % Ctrl (BMPR2) [% Ctrl] | % Ctrl (PIP5K2B) [% Ctrl] | % Ctrl (CHEK2) [% Ctrl] | % Ctrl (RIOK2) [% Ctrl] | % Ctrl (SYK) [% Ctrl] | % Ctrl (PFTAIRE2) [% Ctrl] | % Ctrl (FLT1) [% Ctrl] | % Ctrl (CDK3) [% Ctrl] | % Ctrl (ABL2) [% Ctrl] | % Ctrl (TBK1) [% Ctrl] | % Ctrl (TIE1) [% Ctrl] | further results
CN(C)C(=O)c1ccc(N2CCCN(c3ccnc4sc(C(N)=O)c(N)c34)CC2)cc1 [15u, 3-amino-4-(4-(4-(dimethylcarbamoyl)phenyl)-1,4-diazepan-1-yl)thieno[2,3-b]pyridine-2-carboxamide] | 100 | 89 | 74 | 100 | 72 | 95 | 96 | 100 | 89 | 79 | 92 | 92 | 35 | 95 | 100 | 100 | 92 | 85 | 99 | 90 | % Ctrl (ULK1): 96 % Ctrl; % Ctrl (OSR1): 100 % Ctrl; % Ctrl (GRK4): 62 % Ctrl; % Ctrl (PAK2): 91 % Ctrl; % Ctrl (NEK11): 90 % Ctrl; % Ctrl (PLK3): 86 % Ctrl; % Ctrl (AURKA): 98 % Ctrl; % Ctrl (CAMKK1): 96 % Ctrl; % Ctrl (IKK-alpha): 77 % Ctrl; % Ctrl (ZAK): 94 % Ctrl; % Ctrl (MAP3K2): 98 % Ctrl; % Ctrl (DLK): 93 % Ctrl; % Ctrl (MST4): 95 % Ctrl; % Ctrl (MEK1): 93 % Ctrl; % Ctrl (HCK): 96 % Ctrl; % Ctrl (MAST1): 92 % Ctrl
[2H]C([2H])([2H])N(C(=O)c1ccc(N2CCCN(c3ccnc4sc(C(N)=O)c(N)c34)CC2)cc1)C([2H])([2H])[2H] [15u_D6, 3-amino-4-(4-(4-(bis(methyl-d3)carbamoyl)phenyl)-1,4-diazepan-1-yl)thieno[2,3-b]pyridine-2-carboxamide] | 78 | 87 | 53 | 89 | 77 | 100 | 100 | 74 | 96 | 88 | 95 | 92 | 3.9 | 100 | 80 | 100 | 97 | 91 | 97 | 96 | % Ctrl (ULK1): 72 % Ctrl; % Ctrl (OSR1): 88 % Ctrl; % Ctrl (GRK4): 98 % Ctrl; % Ctrl (PAK2): 94 % Ctrl; % Ctrl (NEK11): 86 % Ctrl; % Ctrl (PLK3): 90 % Ctrl; % Ctrl (AURKA): 99 % Ctrl; % Ctrl (CAMKK1): 100 % Ctrl; % Ctrl (IKK-alpha): 90 % Ctrl; % Ctrl (ZAK): 100 % Ctrl; % Ctrl (MAP3K2): 86 % Ctrl; % Ctrl (DLK): 89 % Ctrl; % Ctrl (MST4): 89 % Ctrl; % Ctrl (MEK1): 83 % Ctrl; % Ctrl (HCK): 96 % Ctrl; % Ctrl (MAST1): 92 % Ctrl
